Data set [1] is described as follows: Phase 1a single-dose, dose-escalation safety and tolerability study in healthy adult participants. As to conditions: single oral dose 10, 25, 50, 100 and 175 mg. The class given is in vivo, human. The source says:
A Phase 1a, double-blind, randomized, placebo-controlled, single-dose, dose-escalation and food-effect study is being conducted with 2-amino-N-(4-hydroxybicyclo-[2.2.2]octan-1-yl)-5-(4-((1R,5S)-3-(tetrahydro-2H-pyran-4-yl)-3-azabicyclo-[3.1.0]hexan-1-yl)phenyl)nicotinamide (“Compound A”) in order to assess the safety, tolerability, and pharmacokinetics (PK) of Compound A when administered orally as a single dose to healthy adult participants.
Compound A has been administered as a single dose at the dose levels of 10 mg, 25 mg, 50 mg, 100 mg, and 175 mg once to 9 healthy participants at each dose level.

Data set [2] in a line: 28-day repeat dose toxicity study in dogs. The class given is in vivo. The source says: (§1) Iron parameters and liver functional tests will be monitored clinically.
(§2) Potential increases in heart rate, skin/hair, and the gastrointestinal track will also be monitored clinically.

For data set [3], the system named is mouse adenine-induced chronic kidney disease model. As to the kind of experiment: Mouse adenine-induced chronic kidney disease (anemia) model. The data set is classed as in vivo, male C57BL/6 mice. An excerpt: The anemia associated with chronic kidney disease has been associated with the hepatic hormone hepcidin (Akchurin et al., Am. J. Physiol. Renal Physiol., 2016). Therefore, reduction of hepcidin levels through inhibition of ALK2 would be a useful therapeutic strategy to combat this aspect of the disease. To test this hypothesis, a murine model of chronic kidney disease that also leads to anemia was used. Orally administered adenine metabolizes to 2,8-dihydroxyadenine, which crystalizes in the tubules of the kidney. Build-up of this metabolite causes kidney injury (nephropathy), inflammation, and subsequently anemia. Mice (typically male C57B/6 mice age 6-10 weeks) are administered adenine (maximum dose of 50 mg/kg QD) by oral gavage for 28 days. During this time, mice are monitored weekly for changes in kidney function and hematology. Anemia onset is tracked by blood draws to measure complete blood count (CBC), which includes red blood cell count, hemoglobin levels, and hematocrit. Drops in these blood parameters would be indicative of anemia. […] Changes in kidney function are detectable within 10 days of adenine administration (Jia et al., BMC Nephrology, 2013; Rahman et al., PLoS One, 2018), and are monitored by analysis of plasma levels of creatinine and blood urea nitrogen (BUN) (Rahman et al., PLoS One, 2018). Increases in plasma creatinine, plasma BUN, and urine protein (>2 fold) are indicative of kidney injury. Body weights are also monitored weekly as a sign of overall fitness.
To investigate the ability of an ALK2 inhibitor to alleviate the anemia brought on by kidney injury, male C57BL/6 mice (Charles River Laboratories) were administered oral adenine (45 mg/kg QD) for 28 days. A cohort of mice were also administered vehicle solution to maintain a normal blood level baseline for comparison (n=10). Mice were monitored weekly for changes in blood parameters by CBC, and for changes in weight. Starting at 14 days post first administration of adenine, mice receiving adenine were dosed with either 30 mg/kg QD (n=8) or 100 mg/kg QD (n=9) Compound A, or vehicle control (n=10). Mice were dosed for 21 days, which includes […] after the cessation of adenine administration. Final analyses were performed one week after the last dose of Compound A, 42 days after adenine administration began. Shown in FIG. 1 are results from this experiment.
A study was performed to investigate the effects of starting the dosing of Compound A later in kidney disease progression at the point when hepcidin levels increase, at […]. Male C57BL/6 mice were administered oral adenine (45 mg/kg QD) for 28 days. A cohort of mice were also administered vehicle solution to maintain a normal blood level baseline for comparison (n=8). Mice were monitored weekly for changes in blood parameters by CBC, and for changes in weight. The mice receiving adenine were dosed with either 30 mg/kg QD (n=8) or 100 mg/kg QD (n=8) Compound A, or vehicle control (n=8). Compound A dosing began at either 14 or 21 days after adenine administration began and continued for 21 days, followed by one more week until blood analysis. The dosing that began on day 14 was termed “prophylactic” as it began before the increase in hepcidin occurs. Dosing that began on day 21 was termed “concomitant” as the dosing coincided with hepcidin level increase. […] Overall, Compound A was able to improve the anemia arising in this model. […]

A short description of data set [4]: 28-day repeat dose toxicity study in rats. The class given is in vivo.
Text: as §1, §2

SMILES strings stand for the structures.

For the molecule `Nc1ncc(-c2ccc([C@@]34C[C@@H]3CN(C3CCOCC3)C4)cc2)cc1C(=O)NC12CCC(O)(CC1)CC2` [Compound A, 2-amino-N-(4-hydroxybicyclo-[2.2.2]octan-1-yl)-5-(4-((1R,5S)-3-(tetrahydro-2H-pyran-4-yl)-3-azabicyclo-[3.1.0]hexan-1-yl)phenyl)nicotinamide], in data set [1] (9 healthy participants per dose level), the “severe adverse events (SAEs)” value is on record as “No severe adverse events (SAEs) have been observed”. The “severity of adverse events (AEs)” value in data set [1] (all dose levels) is “mild and self-limiting”. The “findings at the no observed adverse effect level (NOAEL)” value is listed as “slight increases in iron staining in the liver with no associated increase in liver function tests (LFTs) or microscopic findings in the liver” in data set [2] (28-day repeat dose, at NOAEL) and “slight increases in iron staining in the liver with no associated increase in liver function tests (LFTs) or microscopic findings in the liver” in data set [4] (at NOAEL). Moreover, the “liver findings at higher doses” value was “increases in serum alanine aminotransferase (ALT) and aspartate aminotransferase (AST) and microscopic findings in the liver” in data set [2] (28-day repeat dose, doses above NOAEL); “increases in serum alanine aminotransferase (ALT) and aspartate aminotransferase (AST) and microscopic findings in the liver” in data set [4] (doses above NOAEL). Further, the “additional adverse findings considered related to inhibition of ALK3” value in data set [2] (28-day repeat dose, higher doses) is “mucosal hypertrophy and hyperplasia in the gastrointestinal tract with associated changes in the mesenteric lymph nodes, anagen phase arrest of hair follicles, and further alterations in iron metabolism”; in data set [4] (higher doses, species not given), “mucosal hypertrophy and hyperplasia in the gastrointestinal tract with associated changes in the mesenteric lymph nodes, anagen phase arrest of hair follicles, and further alterations in iron metabolism”. Besides, the heart rate result in data set [2] (higher doses) is recorded as “increased heart rates”. Further, the “hemoglobin levels relative to normal range” value in data set [3] (100 mg/kg QD, prophylactic dosing (from day 14), FIG. 2) is given as “returned hemoglobin levels that are within the normal range”. The body weights entry in data set [3] (30 or 100 mg/kg QD for 21 days from day 14, vs adenine without Compound A, FIG. 1 right) is “increased weights”. For the same molecule, the “hemoglobin levels, prophylactic dosing” value in data set [3] (30 or 100 mg/kg QD for 21 days starting day 14 of adenine, FIG. 2 left) is reported as “dose dependent increase in hemoglobin levels”. In addition, the “hemoglobin levels, concomitant dosing” value in data set [3] (30 or 100 mg/kg QD for 21 days starting day 21 of adenine, FIG. 2 right) was “significant increases in hemoglobin levels that were dose dependent”. For the same molecule, in data set [3] (day 42, 30 or 100 mg/kg QD for 21 days starting 14 days after first adenine (45 mg/kg QD, 28 days), vs adenine + vehicle, FIG. 1 left), the “hemoglobin (HGB) levels” value is on record as “dose-dependently improved hemoglobin (HGB) levels”.

Source of the values: patent publication US11723899B2, “ALK2 inhibitors for the treatment of anemia” (Incyte Corporation, priority 2020, dated 2023).
